Measured values reported in patent publication US8236750B2, “Composition comprising a pulmonary surfactant and a TNF-derived peptide” (Nycomed GmbH, priority 2004, dated 2012).

System: Male Wistar rats
Test: Arterial blood oxygenation after repeated saline lung lavage in rats
Format: in vivo, rat
Conditions: TIP 500 μg/animal alone, intratracheally, 1.2 mL in NaCl 0.9%; lung-lavaged rats; up to 150 min after administration
Protocol: Male Wistar rats were prepared as disclosed in Example 5. NaCl 0.9% (open circles), LUSUPULTIDE 12.5 mgPL/kg (filled squares), the circularized peptide […] (SEQ ID NO:3) (=TIP) 500 μg/animal (stars), or LUSUPULTIDE 12.5 mgPL/kg in combination with TIP 500 μg/animal (open squares) was administered intratracheally (administration volume 1.2 mL, solvent NaCl 0.9%). Arterial blood oxygenation (PaO2) was determined every 30 min up to 150 min after drug administration (t=210 min). […] Data are shown as mean ±SEM.*p<0.05, **p<0.01 versus LUSUPULTIDE 12.5 mgPL/kg
Male Wistar rats (230-280 g) were anaesthetized, catheterized to withdraw arterial blood, and ventilated with pure oxygen (=>PaO2˜500-550 mmHg). 30 min later lungs were ravaged 5-9 times with NaCl 0.9% (=>PaO2˜50-100 mmHg). After 60 min NaCl 0.9%, LUSUPULTIDE 12.5 mgPL/kg, TIP (500 μg/animal), or LUSUPULTIDE (12.5 mgPL/kg) in combination with TIP (500 μg/animal) was administered intratracheally (administration volume 1.2 mL, solvent NaCl 0.9%). Arterial blood oxygenation (PaO2) was determined every 30 min up to 150 min after drug administration (t=210 min).

With CGQRETPEGAEAKPWYC [TIP] the “Influence on arterial blood oxygenation (PaO2)” value was “no influence on oxygenation”.
